Measurements as given in ChEMBL document CHEMBL1201862, “PubChem BioAssay data set” (2004).
Values belong to the molecule of their own block, whether it stands above or below them. The source made the active and inactive calls.

How the values were obtained:
HEK293 [1] = assay: cells; format: functional, cell-based; conditions: Homo sapiens
HEK293 [2] = assay: NOD1 signaling inhibitors, primary screen, cell-based, luminescence, uHTS (AID 1578); format: functional; conditions: Homo sapiens
[3] = biological target: NACHT, LRR and PYD domains-containing protein 1 (Homo sapiens, UniProt Q9C000); assay: NALP1 inhibitors in yeast, dose response, luminescent (AID 488860); format: functional
Sequence of NACHT, LRR and PYD domains-containing protein 1 (Q9C000 1-1212 limits assumed): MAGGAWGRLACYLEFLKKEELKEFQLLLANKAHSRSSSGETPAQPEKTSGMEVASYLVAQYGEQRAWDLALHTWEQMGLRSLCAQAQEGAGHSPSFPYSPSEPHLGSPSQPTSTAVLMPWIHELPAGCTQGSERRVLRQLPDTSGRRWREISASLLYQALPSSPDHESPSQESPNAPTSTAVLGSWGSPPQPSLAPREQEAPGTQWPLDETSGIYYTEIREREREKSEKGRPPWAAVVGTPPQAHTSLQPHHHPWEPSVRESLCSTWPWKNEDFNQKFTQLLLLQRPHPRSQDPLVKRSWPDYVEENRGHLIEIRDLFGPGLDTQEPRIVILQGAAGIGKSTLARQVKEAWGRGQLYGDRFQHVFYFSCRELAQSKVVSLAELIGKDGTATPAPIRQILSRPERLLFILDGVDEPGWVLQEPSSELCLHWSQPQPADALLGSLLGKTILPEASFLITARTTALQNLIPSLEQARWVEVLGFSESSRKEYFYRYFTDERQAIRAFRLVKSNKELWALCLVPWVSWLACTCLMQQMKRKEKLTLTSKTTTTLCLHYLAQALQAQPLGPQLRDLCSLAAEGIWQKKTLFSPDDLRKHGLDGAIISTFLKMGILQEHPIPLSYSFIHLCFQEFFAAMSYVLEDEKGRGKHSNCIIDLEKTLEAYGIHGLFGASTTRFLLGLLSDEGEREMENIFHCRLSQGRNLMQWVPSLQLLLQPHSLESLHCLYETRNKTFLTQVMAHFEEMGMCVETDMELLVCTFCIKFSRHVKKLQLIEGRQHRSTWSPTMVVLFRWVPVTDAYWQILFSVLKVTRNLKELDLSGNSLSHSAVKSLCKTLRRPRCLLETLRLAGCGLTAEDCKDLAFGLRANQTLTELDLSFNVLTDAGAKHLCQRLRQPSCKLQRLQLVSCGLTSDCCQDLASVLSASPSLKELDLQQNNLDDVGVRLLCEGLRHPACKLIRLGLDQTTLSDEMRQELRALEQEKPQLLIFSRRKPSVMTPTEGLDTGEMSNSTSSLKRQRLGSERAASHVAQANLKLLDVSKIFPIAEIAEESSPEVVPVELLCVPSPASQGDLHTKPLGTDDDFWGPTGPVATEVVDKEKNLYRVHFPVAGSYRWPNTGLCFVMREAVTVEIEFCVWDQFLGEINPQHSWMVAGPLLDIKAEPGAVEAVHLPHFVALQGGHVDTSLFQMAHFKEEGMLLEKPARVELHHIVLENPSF
Sequence of NACHT, LRR and PYD domains-containing protein 1 (Q9C000 1213-1473 limits assumed): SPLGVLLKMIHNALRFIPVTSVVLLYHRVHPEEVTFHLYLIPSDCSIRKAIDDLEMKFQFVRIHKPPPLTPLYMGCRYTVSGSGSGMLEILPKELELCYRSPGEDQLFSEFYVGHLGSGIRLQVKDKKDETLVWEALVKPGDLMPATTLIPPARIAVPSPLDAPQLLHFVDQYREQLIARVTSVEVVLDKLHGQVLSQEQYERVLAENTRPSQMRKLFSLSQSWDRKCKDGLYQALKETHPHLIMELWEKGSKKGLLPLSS

[4] = biological target: Nucleotide-binding oligomerization domain-containing protein 2 (Homo sapiens, UniProt Q9HC29); assay: NOD2 signaling inhibitors, cell-based, luminescence, uHTS, HEK293 (AID 1566); format: functional
Sequence of Nucleotide-binding oligomerization domain-containing protein 2 (Q9HC29 whole entry, the tested form may be a part): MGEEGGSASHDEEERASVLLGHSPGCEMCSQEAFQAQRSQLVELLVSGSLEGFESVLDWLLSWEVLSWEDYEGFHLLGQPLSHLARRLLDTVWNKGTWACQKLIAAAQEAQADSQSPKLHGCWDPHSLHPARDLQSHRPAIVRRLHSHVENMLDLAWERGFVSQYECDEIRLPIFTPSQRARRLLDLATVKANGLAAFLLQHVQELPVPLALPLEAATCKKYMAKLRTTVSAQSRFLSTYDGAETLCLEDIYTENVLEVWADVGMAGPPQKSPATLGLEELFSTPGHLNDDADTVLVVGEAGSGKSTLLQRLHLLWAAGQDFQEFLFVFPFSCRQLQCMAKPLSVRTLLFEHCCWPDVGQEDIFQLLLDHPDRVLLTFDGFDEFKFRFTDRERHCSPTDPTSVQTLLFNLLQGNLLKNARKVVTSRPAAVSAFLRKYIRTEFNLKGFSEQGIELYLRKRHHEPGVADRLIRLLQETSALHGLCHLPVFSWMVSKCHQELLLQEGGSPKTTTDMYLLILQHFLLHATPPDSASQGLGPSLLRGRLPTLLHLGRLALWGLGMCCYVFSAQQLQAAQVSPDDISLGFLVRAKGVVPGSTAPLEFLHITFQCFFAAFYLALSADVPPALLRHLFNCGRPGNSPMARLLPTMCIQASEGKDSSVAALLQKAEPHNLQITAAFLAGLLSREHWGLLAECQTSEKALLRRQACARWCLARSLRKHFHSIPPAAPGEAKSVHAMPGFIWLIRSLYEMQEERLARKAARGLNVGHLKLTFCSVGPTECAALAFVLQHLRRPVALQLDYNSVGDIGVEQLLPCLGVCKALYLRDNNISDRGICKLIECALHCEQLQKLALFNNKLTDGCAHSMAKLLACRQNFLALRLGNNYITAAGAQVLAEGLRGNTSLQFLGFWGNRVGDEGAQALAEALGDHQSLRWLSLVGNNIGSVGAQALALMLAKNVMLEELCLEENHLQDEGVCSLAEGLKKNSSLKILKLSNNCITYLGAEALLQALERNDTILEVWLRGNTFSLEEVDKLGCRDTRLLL

[5] = biological target: FAD-linked sulfhydryl oxidase ALR (Homo sapiens, UniProt P55789); assay: inhibitors of human ALR sulfhydryl oxidase, dose response, biochemical, H2O2 detection, luminescence, cherry-pick (AID 493248)
Sequence of FAD-linked sulfhydryl oxidase ALR (P55789 whole entry): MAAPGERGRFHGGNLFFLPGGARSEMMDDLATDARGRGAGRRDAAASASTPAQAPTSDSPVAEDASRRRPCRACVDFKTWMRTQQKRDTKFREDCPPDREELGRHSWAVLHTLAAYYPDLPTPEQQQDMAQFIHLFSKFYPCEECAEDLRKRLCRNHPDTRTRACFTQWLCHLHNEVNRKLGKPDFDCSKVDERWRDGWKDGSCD

HEK293 [6] = assay: cells; format: functional, cell-based; conditions: Homo sapiens; remark: listed apart in the source
[7] = biological target: T1, Microphthalmia-associated transcription factor (Homo sapiens, UniProt O75030); assay: TRPM1 promoter luciferase signal decrease, dose response, MITF inhibitor project, cell-based, SK-MEL-5, cherry-picked, set 3 (AID 493073); format: functional
T1 sequence (O75030 whole entry): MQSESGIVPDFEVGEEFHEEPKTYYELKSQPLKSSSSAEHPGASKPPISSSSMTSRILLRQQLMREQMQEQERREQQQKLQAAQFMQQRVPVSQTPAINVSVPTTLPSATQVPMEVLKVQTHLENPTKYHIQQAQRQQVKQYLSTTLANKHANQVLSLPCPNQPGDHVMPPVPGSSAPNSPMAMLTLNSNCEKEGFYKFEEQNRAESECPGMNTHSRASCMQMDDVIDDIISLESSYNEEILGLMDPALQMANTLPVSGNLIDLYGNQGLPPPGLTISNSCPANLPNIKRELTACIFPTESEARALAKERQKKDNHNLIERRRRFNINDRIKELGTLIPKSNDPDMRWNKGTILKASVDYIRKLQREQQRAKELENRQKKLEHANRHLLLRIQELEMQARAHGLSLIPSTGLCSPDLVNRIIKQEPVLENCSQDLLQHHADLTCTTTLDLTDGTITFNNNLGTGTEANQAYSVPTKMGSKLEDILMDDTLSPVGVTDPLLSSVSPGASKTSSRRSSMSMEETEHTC

[8] = C. albicans growth with fluconazole, confirmation, fluorescence, retest (AID 2467); format: functional, cell-based
HEK293 [9] = assay: cells; format: functional, cell-based; conditions: Homo sapiens; remark: listed apart in the source
[10] = NIH-3T3 fibroblast cytotoxicity, dose response, cytotoxicity control, cell-based, fluorescence, Alamar Blue, secondary assay (AID 2327); format: functional;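 also: NIH-3T3 mouse fibroblasts cultured with fluconazole at 8 µg/mL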
HEK293 [11] = assay: NOD2 signaling inhibitors in MDP-stimulated cells, cell-based, uHTS, luminescence (AID 2001); format: functional; conditions: Homo sapiens
Saccharomyces cerevisiae = assay: NALP1 inhibitor project selectivity study, Caspase-1/ASC signal blockade IC50 in S. cerevisiae (AID 488863); format: functional, organism-based
[12] = biological target: DNA dC->dU-editing enzyme APOBEC-3A (Homo sapiens, UniProt P31941); assay: APOBEC3A DNA deaminase inhibitors, dose response, biochemical (AID 504722); format: functional
Sequence of DNA dC->dU-editing enzyme APOBEC-3A (P31941 whole entry): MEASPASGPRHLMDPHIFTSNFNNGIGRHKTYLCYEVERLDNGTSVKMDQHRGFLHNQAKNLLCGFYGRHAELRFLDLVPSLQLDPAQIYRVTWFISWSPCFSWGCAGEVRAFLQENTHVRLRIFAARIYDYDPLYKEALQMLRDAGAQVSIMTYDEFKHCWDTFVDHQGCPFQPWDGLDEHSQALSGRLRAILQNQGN

[13] = biological target: DNA dC->dU-editing enzyme APOBEC-3G (Homo sapiens, UniProt Q9HC16); assay: Dose Response confirmation of small molecule APOBEC3G DNA Deaminase Inhibitors via a fluorescence-based single-stranded DNA deaminase assay. [Related pubchem assays (depositor defined):AID493012, AID493028]; format: functional
[14] = biological target: T1, Microphthalmia-associated transcription factor; assay: MITF Measured in Cell-Based System Using Plate Reader - 2084-01_Inhibitor_DoseNoFile_CherryPick_Activity_Set2. [Related pubchem assays (depositor defined):AID488944]; format: functional
[15] = biological target: T2, E3 ubiquitin-protein ligase XIAP (Homo sapiens, UniProt P98170); assay: XIAP antagonists, biochemical, IAP family, fluorescence polarization (AID 1018); format: functional
T2 sequence (P98170 whole entry): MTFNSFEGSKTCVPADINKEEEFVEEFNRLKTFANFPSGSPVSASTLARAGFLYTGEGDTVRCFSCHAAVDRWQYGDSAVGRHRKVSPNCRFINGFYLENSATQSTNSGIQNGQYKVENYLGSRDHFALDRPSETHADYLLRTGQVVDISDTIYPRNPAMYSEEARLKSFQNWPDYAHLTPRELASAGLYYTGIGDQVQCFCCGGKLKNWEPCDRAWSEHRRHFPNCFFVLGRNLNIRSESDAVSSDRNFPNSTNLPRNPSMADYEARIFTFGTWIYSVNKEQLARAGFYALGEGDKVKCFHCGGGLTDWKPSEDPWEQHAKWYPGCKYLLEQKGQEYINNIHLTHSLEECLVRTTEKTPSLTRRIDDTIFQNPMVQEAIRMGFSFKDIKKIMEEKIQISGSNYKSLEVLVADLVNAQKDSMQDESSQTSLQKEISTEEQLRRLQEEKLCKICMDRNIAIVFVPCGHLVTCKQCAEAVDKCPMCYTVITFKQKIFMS

[16] = biological target: T2, E3 ubiquitin-protein ligase XIAP; assay: Counter Screen using XIAP-Bir3 for Chemical Antagonists of Bir1/2 domains of IAP-family anti-apoptotic proteins. [Related pubchem assays (depositor defined):AID1018, AID1449, AID1514, AID1638, AID1749, AID1750, AID488957, AID488963]
[17] = biological target: T1, Microphthalmia-associated transcription factor; assay: TRPM1 promoter luciferase signal decrease, dose response, MITF inhibitor project, cell-based, SK-MEL-5, cherry-picked, set 4 (AID 493102); format: functional
[18] = biological target: Peroxisome proliferator-activated receptor gamma/Nuclear receptor coactivator 1 (Homo sapiens, UniProt P37231); assay: (§1) TR-FRET dose response biochemical High Throughput Screening assay for agonists of the steroid receptor coactivator 1 (SRC-1) recruitment by the peroxisome proliferator-activated receptor gamma (PPAR gamma): non-selective agonists. [Related pubchem assays (depositor defined):AID1300, AID1808, AID504735, AID631]; format: protein assay
[19] = biological target: Peroxisome proliferator-activated receptor gamma/Nuclear receptor coactivator 3 (Homo sapiens, UniProt P37231); assay: as §1, with “3 (SRC-3)” for “1 (SRC-1)”, “assays: 1301 (Confirmation screen.), 1048 (Primary screen.)]” for “assays (depositor defined):AID1300, AID1808, AID504735, AID631]”; format: functional
[20] = biological target: T3, Mannose-6-phosphate isomerase (Homo sapiens, UniProt P34949); assay: PMI enzyme inhibitors, confirmation, biochemical, fluorescence intensity (AID 1535)
T3 sequence (P34949 whole entry): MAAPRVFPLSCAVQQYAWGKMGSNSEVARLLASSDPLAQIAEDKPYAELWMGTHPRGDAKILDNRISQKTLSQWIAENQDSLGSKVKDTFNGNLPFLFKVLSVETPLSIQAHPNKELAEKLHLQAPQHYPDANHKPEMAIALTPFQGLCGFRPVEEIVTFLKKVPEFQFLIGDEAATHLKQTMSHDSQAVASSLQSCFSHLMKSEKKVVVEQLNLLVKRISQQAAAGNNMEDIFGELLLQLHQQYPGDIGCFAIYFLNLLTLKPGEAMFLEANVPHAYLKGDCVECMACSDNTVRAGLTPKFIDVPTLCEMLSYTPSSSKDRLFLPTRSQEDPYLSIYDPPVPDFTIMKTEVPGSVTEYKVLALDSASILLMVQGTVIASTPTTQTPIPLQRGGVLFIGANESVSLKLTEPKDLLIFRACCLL

Aspartyl aminopeptidase = Aspartyl aminopeptidase (Plasmodium falciparum 3D7, UniProt Q8I2J3); assay: Counterscreen for inhibitors of M1 and M17 aminopeptidases: QFRET-based biochemical high throughput dose response assay for inhibitors of the Plasmodium falciparum M18 Aspartyl Aminopeptidase (PFM18AAP). [Related PubChem assays: 1619 (Screening assay (M17LAP inhibitors).), 1445 (Screening assay (M1AAP inhibitors).)]
Sequence of Aspartyl aminopeptidase (Q8I2J3 whole entry): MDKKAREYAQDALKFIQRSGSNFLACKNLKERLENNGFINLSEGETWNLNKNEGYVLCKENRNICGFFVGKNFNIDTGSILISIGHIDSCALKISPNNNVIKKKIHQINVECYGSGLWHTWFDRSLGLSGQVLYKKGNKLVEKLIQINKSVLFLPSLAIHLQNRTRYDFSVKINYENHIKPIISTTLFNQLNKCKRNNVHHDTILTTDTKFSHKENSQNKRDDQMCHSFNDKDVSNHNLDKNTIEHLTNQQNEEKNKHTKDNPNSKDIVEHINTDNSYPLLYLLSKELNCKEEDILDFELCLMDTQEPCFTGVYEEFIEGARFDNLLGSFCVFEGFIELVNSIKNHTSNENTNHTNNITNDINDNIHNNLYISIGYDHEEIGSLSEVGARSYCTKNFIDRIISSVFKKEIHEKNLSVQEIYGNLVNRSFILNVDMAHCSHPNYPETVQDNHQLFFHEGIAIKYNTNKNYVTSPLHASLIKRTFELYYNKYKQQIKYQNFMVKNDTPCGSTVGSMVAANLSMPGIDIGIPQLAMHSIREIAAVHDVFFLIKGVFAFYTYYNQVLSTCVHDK

[21] = biological target: Peroxisome proliferator-activated receptor gamma/Nuclear receptor coactivator 2 (Homo sapiens, UniProt P37231); assay: TR-FRET dose response biochemical High Throughput Screening assay for agonists of the steroid receptor coactivator 2 (SRC-2) recruitment by the peroxisome proliferator-activated receptor gamma (PPAR gamma): non-selective agonists. [Related pubchem assays: 1297, 1032 ]; format: functional
Phosphomannomutase 2 = Phosphomannomutase 2 (Homo sapiens, UniProt O15305); assay: Counter screen SAR assay for PMM2 inhibitors via a fluorescence intensity assay. [Related pubchem assays (depositor defined):AID1545, AID1574]
Sequence of Phosphomannomutase 2 (O15305 whole entry): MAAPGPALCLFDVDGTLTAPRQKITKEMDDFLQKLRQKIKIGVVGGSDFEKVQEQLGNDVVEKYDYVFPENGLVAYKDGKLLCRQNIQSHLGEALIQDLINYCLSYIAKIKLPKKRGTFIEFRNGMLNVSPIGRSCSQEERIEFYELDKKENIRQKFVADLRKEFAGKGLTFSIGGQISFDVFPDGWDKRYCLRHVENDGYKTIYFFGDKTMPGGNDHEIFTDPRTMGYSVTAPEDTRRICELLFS

Procathepsin L = Procathepsin L (Homo sapiens, UniProt P07711); assay: cathepsin L inhibitors, dose response, counter-screen for M1/M17 aminopeptidase inhibitor project, biochemical, QFRET, 1536-well (AID 2214)
Sequence of Procathepsin L (P07711 whole entry): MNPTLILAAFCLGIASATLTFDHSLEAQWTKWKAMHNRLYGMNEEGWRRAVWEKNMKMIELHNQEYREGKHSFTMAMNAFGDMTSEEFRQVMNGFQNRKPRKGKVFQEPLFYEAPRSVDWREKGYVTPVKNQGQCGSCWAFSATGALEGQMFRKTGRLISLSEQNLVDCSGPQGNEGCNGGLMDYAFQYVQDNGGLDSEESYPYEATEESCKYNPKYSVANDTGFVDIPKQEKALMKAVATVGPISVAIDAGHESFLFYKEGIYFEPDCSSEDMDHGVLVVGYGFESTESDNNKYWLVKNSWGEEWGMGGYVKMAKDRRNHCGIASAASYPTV

Leucine aminopeptidase = biological target: T4, Leucine aminopeptidase (Plasmodium falciparum 3D7, UniProt Q8IL11); assay: P. falciparum M17LAP inhibitors, primary screen, biochemical, fluorogenic H-Leu-NHMec substrate, 1536-well (AID 1619); format: functional
T4 sequence (Q8IL11 whole entry): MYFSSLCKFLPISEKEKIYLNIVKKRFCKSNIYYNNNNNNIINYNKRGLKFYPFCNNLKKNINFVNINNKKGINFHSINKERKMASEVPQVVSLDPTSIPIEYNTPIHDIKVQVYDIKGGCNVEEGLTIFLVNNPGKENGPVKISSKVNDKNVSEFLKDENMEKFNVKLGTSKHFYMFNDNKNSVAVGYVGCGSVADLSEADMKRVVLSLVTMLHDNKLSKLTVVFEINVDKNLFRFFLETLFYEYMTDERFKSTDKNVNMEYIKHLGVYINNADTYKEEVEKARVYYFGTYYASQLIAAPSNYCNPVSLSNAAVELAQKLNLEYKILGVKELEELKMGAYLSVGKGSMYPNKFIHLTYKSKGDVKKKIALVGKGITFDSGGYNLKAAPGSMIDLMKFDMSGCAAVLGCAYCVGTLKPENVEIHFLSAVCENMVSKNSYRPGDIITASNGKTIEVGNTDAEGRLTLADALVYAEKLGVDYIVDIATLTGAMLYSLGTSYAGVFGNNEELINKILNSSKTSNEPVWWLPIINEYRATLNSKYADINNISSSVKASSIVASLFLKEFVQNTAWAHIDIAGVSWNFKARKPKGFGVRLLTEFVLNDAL

[22] = biological target: Alkaline phosphatase, placental type (Homo sapiens, UniProt P05187); assay: PLAP enzyme inhibitors, confirmation, biochemical, luminescence (AID 1512); format: functional
[23] = biological target: Glyceraldehyde-3-phosphate dehydrogenase (Homo sapiens, UniProt P04406)
Sequence of Glyceraldehyde-3-phosphate dehydrogenase (P04406 whole entry): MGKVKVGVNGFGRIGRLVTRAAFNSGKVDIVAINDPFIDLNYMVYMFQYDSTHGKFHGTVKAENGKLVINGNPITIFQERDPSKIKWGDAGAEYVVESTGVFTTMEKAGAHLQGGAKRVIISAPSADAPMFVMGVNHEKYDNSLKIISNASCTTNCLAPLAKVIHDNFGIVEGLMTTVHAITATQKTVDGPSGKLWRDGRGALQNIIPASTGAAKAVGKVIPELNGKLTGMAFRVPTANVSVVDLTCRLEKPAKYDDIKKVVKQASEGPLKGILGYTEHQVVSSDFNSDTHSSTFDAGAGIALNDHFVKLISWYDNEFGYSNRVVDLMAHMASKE

[24] = biological target: T5, Alkaline phosphatase, tissue-nonspecific isozyme (Homo sapiens, UniProt P05186); assay: human TNAP enzyme inhibitors, SAR follow-up, biochemical, luminescent, dose response (AID 1056)
T5 sequence (P05186 whole entry): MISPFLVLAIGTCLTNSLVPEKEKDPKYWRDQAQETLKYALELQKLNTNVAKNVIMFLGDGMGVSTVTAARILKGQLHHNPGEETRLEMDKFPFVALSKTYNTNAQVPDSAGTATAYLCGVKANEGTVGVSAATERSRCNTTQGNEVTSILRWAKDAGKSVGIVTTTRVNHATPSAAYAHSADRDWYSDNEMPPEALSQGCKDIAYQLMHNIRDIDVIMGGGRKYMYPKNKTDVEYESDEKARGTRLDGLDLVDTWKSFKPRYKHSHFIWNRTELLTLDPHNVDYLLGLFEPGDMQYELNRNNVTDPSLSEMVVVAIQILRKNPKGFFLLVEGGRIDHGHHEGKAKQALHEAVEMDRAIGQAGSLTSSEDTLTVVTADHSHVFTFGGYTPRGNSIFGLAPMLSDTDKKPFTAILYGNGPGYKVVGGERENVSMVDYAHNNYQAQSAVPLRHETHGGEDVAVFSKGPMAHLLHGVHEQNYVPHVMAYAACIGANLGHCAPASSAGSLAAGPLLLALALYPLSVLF

- AC50 [14]: > 350 µM (inactive)
- IC50 [15]: > 100 µM (not active)
- IC50 [16]: > 100 µM (inactive)
- AC50 [17]: > 350 µM (inactive)
- AC50 [7]: > 350 µM (inactive)
SMILES: Cc1cc2oc(=O)cc(C)c2cc1NC(=O)CCC(=O)O

- AC50 [5]: 0.097 µM (active)
- EC50 [18]: > 79.4 µM (inactive)
- EC50 [19]: > 79.4 µM (not active)
- IC50 [20]: 1.94 µM (active)
- IC50 (Aspartyl aminopeptidase): 15.6 µM (not active)
- EC50 [21]: > 79.4 µM (not active)
- IC50 (Phosphomannomutase 2): > 100 µM (inactive)
- IC50 (Procathepsin L): > 59.6 µM (not active)
- IC50 (Leucine aminopeptidase): 3.56 µM (active)
SMILES: Sc1n[nH]c(-c2cccc(Cl)c2)n1

Second part, the molecule before the results:

SMILES: Nc1ccc(Oc2cccc(Oc3ccc(N)cc3)c2)cc1
- IC50 (HEK293 [1]): 19.9 µM (active)
- EC50 (HEK293 [2]): 5.94 µM (active)
- IC50 [3]: 15.3 µM (active)
- EC50 [4]: 1.85 µM (active)
- AC50 [5]: 0.677 µM (active)
- IC50 (HEK293 [6]): > 20 µM (inactive)
- AC50 [7]: 1.1 µM (active)
- EC50 [8]: > 38 µM (not active)
- IC50 (HEK293 [9]): 1.61 µM (active)
- EC50 [10]: > 150 µM (inactive)
- IC50 (HEK293 [11]): 3.05 µM (active)
- IC50 (Saccharomyces cerevisiae): 10.2 µM (active)

SMILES: S=c1[nH]nc(-c2ccco2)n1C1CCCCC1
- IC50 [12]: > 100 µM (inactive)
- AC50 [5]: 5.64 µM (active)
- IC50 [13]: 4.08 µM (active)

SMILES: CSc1nnc(NC(=O)c2cc(F)c(F)c(F)c2F)[nH]1
- IC50 [22]: > 100 µM (inactive)
- IC50 [23]: > 100 µM (not active)
- IC50 [24]: > 100 µM (inactive)
